# Data taken from patent US20250195530A1, “POLQ INHIBITORS” (ASTRAZENECA AB, priority 2022, published 2025).
# System: DLD-1 BRCA2−/− cells
# Assay: Homologous recombination synthetic lethal inhibition of proliferation, DLD-1 BRCA2-/- (Cell Titre Glo 3D)
# Assay type: cell-based
# Details: Homo sapiens, DLD-1, DLD-1 BRCA2-/- proliferation; column head only partly shown; read-out: POLQ PD Prolif Lumin (converted)
# From the text: This assay identifies anti-proliferative effects of POLQ compounds in the homologous recombination deficient colorectal cell line DLD-1 BRCA2−/− over 8-9 population doublings (7 days for DLD-1 and 12 days for DLD-1 BRCA2−/−). DLD1 BRCA2 wt are used as a control to detect cell toxic effects not specific to homologous recombination deficiency.
# DLD-1 BRCA2−/− and DLD-1 cells were kept in continuous culture in Assay Medium (RPMI 1640 phenol red free (Sigma R7509) containing 1% GlutaMAX (Gibco 35050) and 10% Foetal Bovine Serum (Gibco 10270-106)). On the day of the assay cells in culture of ˜80-90% confluent were used. Cell monolayers were washed with 10 mL PBS, then removed and added 2 mL TrypLE Express (Gibco 12604). The cells with TrypLE Express were incubated for 5 minutes in cell culture incubator and then the detached cells resuspend in 15 mL Assay Medium. Cells were counted using a ViCell and the cell images were monitored for clumps of cells, ideally they should be single or <3 cell clusters. The cells were diluted to 3,000 cells/mL of DLD-1 BRCA2−/− and 1,500 cells/mL of DLD-1 in Assay Medium and 100 μL added per well of transparent bottomed, black, tissue culture-treated 96-well plates (CoStar, No. 3904) Assay Ready Plates. The Assay Ready Plates contain a 10 point 10 μM to 0.51 nM dose range with three-fold dilutions in DMSO with a final volume of 100 nL. The plates were incubated at 37° C. with 5% C02 for 6 days. On day 6, 100 μL/well of Assay Medium was added to duplicate Assay Ready Plates. 90 μL of culture medium was removed from the cell plates and replenished with the Assay Media and compounds from the duplicate Assay Ready Plates using the Bravo. The plates were further incubated at 37° C. with 5% CO2. On day 7 the plates containing DLD-1 and Cell Titre Glo 3D (Promega G9683) were equilibrated to room temperature, then 60 μL of Cell Titre Glo 3D was added per well and incubated on a shaking platform for 30 min. Plates were read on the Envision measuring luminescence for 1 second per well. On day 12 the plates containing DLD-1 BRCA2−/− cells and Cell Titre Glo 3D (Promega G9683) were equilibrated to room temperature, then 60 μL Cell Titre Glo 3D added per well and incubated on a shaking platform for 30 min. Plates were read on the Envision measuring luminescence for 1 second per well. The data was exported into a suitable software package (such as Genedata) to perform curve fitting analysis. Inhibition of cell proliferation was expressed as an IC5o value and was determined by calculation of the concentration of compound that was required to give a 50% reduction of the average maximum Total Intensity signal.
row,Structure (SMILES),IC50 [nM]
1,"CCC(C)c1ccc(-c2nc3c(OC4(C)CC4)ncnc3n2Cc2cc(C)ccn2)c(Cl)c1 (racemic) [Example T232, 8-(4-(sec-butyl)-2-chlorophenyl)-6-(1-methylcyclopropoxy)-9-((4-methylpyridin-2-yl)methyl)-9H-purine]",> 1580
2,"CC(CCOc1ccc(-c2nc3c(OC4(C)CC4)ncnc3n2Cc2cccc(Cl)c2F)c(Cl)c1)C(=O)O (racemic) [Example T267, 4-(3-chloro-4-(9-(3-chloro-2-fluorobenzyl)-6-(1-methylcyclopropoxy)-9H-purin-8-yl)phenoxy)-2-methylbutanoic acid]",398
3,"CC(CCOc1ccc(-c2nc3c(OC4(C)CC4)ncnc3n2Cc2ccc(F)c(Cl)c2)c(Cl)c1)C(=O)O (racemic) [Example T269, 4-(3-chloro-4-(9-(3-chloro-4-fluorobenzyl)-6-(1-methylcyclopropoxy)-9H-purin-8-yl)phenoxy)-2-methylbutanoic acid]",1260
4,"CC(CCc1ccc(-c2nc3c(OC4(C)CC4)ncnc3n2Cc2cccc(Cl)c2)c(Cl)c1)C(=O)O (racemic) [Example T290, 4-(3-chloro-4-(9-(3-chlorobenzyl)-6-(1-methylcyclopropoxy)-9H-purin-8-yl)phenyl)-2-methylbutanoic acid]",251
5,"CC(CCOc1ccc(-c2nc3c(OC4(C)CC4)ncnc3n2Cc2cccc(Cl)c2)c(Cl)c1)C(=O)O (racemic) [Example T291, 4-(3-chloro-4-(9-(3-chlorobenzyl)-6-(1-methylcyclopropoxy)-9H-purin-8-yl)phenoxy)-2-methylbutanoic acid]",158

# Same assay, conditions: Homo sapiens, DLD-1, DLD-1 BRCA2 −/−, mean; read-out: POLQ PD Prolif Lumin BRCA2 −/− mean pIC50 (converted)
row,Structure (SMILES),IC50 [nM]
1,"COc1c(Cl)cccc1Cn1c(-c2ccc(OCCC(C)C(=O)O)cc2Cl)nc2c(OC3(C)CC3)ncnc21 (racemic) [Example U3, 4-(3-chloro-4-(9-(3-chloro-2-methoxybenzyl)-6-(1-methylcyclopropoxy)-9H-purin-8-yl)phenoxy)-2-methylbutanoic acid]",3980
2,"COc1ccccc1Cn1c(-c2ccc(OCCC(C)C(=O)O)cc2Cl)nc2c(OC3(C)CC3)ncnc21 (racemic) [Example U4, 4-(3-chloro-4-(9-(2-methoxybenzyl)-6-(1-methylcyclopropoxy)-9H-purin-8-yl)phenoxy)-2-methylbutanoic acid]",251
3,"CC(CCOc1ccc(-c2nc3c(OC4(C)CC4)ncnc3n2Cc2ccccc2F)c(Cl)c1)C(=O)O (racemic) [Example U5, 4-(3-chloro-4-(9-(2-fluorobenzyl)-6-(1-methylcyclopropoxy)-9H-purin-8-yl)phenoxy)-2-methylbutanoic acid]",316
4,"CC(CCOc1ccc(-c2nc3c(OC4(C)CC4)ncnc3n2Cc2cccc(F)c2)c(Cl)c1)C(=O)O (racemic) [Example U6, 4-(3-chloro-4-(9-(3-fluorobenzyl)-6-(1-methylcyclopropoxy)-9H-purin-8-yl)phenoxy)-2-methylbutanoic acid]",251
5,"CC(CCOc1ccc(-c2nc3c(OC4(C)CC4)ncnc3n2Cc2ccc(C#N)cc2)c(Cl)c1)C(=O)O (racemic) [Example U7, 4-(3-chloro-4-(9-(4-cyanobenzyl)-6-(1-methylcyclopropoxy)-9H-purin-8-yl)phenoxy)-2-methylbutanoic acid]",2510
6,"CC(CCCc1ccc(-c2nc3c(OC4(C)CC4)ncnc3n2Cc2ccccc2C#N)c(Cl)c1)C(=O)O (racemic) [Example U12, 5-(3-chloro-4-(9-(2-cyanobenzyl)-6-(1-methylcyclopropoxy)-9H-purin-8-yl)phenyl)-2-methylpentanoic acid]",398

# Same assay, conditions: Homo sapiens, DLD-1, first proliferation column (c5), taken as DLD-1 BRCA2-/-; read-out: POLQ PD Prolif Lumin (converted)
row,Structure (SMILES),IC50 [nM]
1,"Cc1ccnc(Cn2c(-c3ccc(N4CCC(O)CC4=O)cc3Cl)nc3c(OC4(C)CC4)ncnc32)c1 (racemic) [Example T321, 1-(3-chloro-4-(6-(1-methylcyclopropoxy)-9-((4-methylpyridin-2-yl)methyl)-9H-purin-8-yl)phenyl)-4-hydroxypiperidin-2-one]",3980

# Same assay, conditions: Homo sapiens, DLD-1, first proliferation column (c5); DLD-1 BRCA2-/-; read-out: POLQ PD Prolif Lumin (converted)
row,Structure (SMILES),IC50 [nM]
1,"Cc1ccnc(Cn2c(-c3ccc(C4CCNC4=O)cc3Cl)nc3c(OC4(C)CC4)ncnc32)c1 (racemic) [Example T176, 3-(3-chloro-4-(6-(1-methylcyclopropoxy)-9-((4-methylpyridin-2-yl)methyl)-9H-purin-8-yl)phenyl)pyrrolidin-2-one]",794
2,"Cc1ccnc(Cn2c(-c3ccc(OC4CCNC4=O)cc3Cl)nc3c(OC4(C)CC4)ncnc32)c1 (racemic) [Example T178, 3-(3-chloro-4-(6-(1-methylcyclopropoxy)-9-((4-methylpyridin-2-yl)methyl)-9H-purin-8-yl)phenoxy)pyrrolidin-2-one]",501
3,"Cc1ccnc(Cn2c(-c3ccc(N4CC5CC4CCN5)cc3Cl)nc3c(OC4(C)CC4)ncnc32)c1 (racemic) [Example T491, 8-(4-(2,6-diazabicyclo[3.2.1]octan-6-yl)-2-chlorophenyl)-6-(1-methylcyclopropoxy)-9-((4-methylpyridin-2-yl)methyl)-9H-purine]",501
4,"Cc1ccnc(Cn2c(-c3ccc(N4CCN5CCC4C5)cc3Cl)nc3c(OC4(C)CC4)ncnc32)c1 (racemic) [Example T493, 8-(4-(1,4-diazabicyclo[3.2.1]octan-4-yl)-2-chlorophenyl)-6-(1-methylcyclopropoxy)-9-((4-methylpyridin-2-yl)methyl)-9H-purine]",251
5,"Cc1ccc(C)c(Cn2c(-c3ccc(OCCC(C)C(=O)O)cc3Cl)nc3c(OC4(C)CC4)ncnc32)c1 (racemic) [Example T569, 4-(3-chloro-4-(9-(2,5-dimethylbenzyl)-6-(1-methylcyclopropoxy)-9H-purin-8-yl)phenoxy)-2-methylbutanoic acid]",631
6,"Cc1cccc(Cn2c(-c3ccc(OCCC(C)C(=O)O)cc3Cl)nc3c(OC4(C)CC4)ncnc32)c1C (racemic) [Example T570, 4-(3-chloro-4-(9-(2,3-dimethylbenzyl)-6-(1-methylcyclopropoxy)-9H-purin-8-yl)phenoxy)-2-methylbutanoic acid]",398

# Same assay, conditions: Homo sapiens, DLD-1, first proliferation column; DLD-1 BRCA2-/-; read-out: POLQ PD Prolif Lumin (converted)
row,Structure (SMILES),IC50 [nM]
1,"CC(CCOc1ccc(-c2nc3c(OC4(C)CC4)ncnc3n2Cc2cccc(C3CC3)c2)c(Cl)c1)C(=O)O (racemic) [Example T601, 4-(3-chloro-4-(9-(3-cyclopropylbenzyl)-6-(1-methylcyclopropoxy)-9H-purin-8-yl)phenoxy)-2-methylbutanoic acid]",794

# Same assay, conditions: Homo sapiens, DLD-1, proliferation, luminescence, taken as DLD-1 BRCA2-/-; read-out: POLQ PD Prolif Lumin (converted)
row,Structure (SMILES),IC50 [nM]
1,"CC(CCCc1ccc(-c2nc3c(OC4(C)CC4)ncnc3n2Cc2cccc(Cl)c2)c(Cl)c1)C(=O)O (racemic) [Example T434, 5-(3-chloro-4-(9-(3-chlorobenzyl)-6-(1-methylcyclopropoxy)-9H-purin-8-yl)phenyl)-2-methylpentanoic acid]",158
2,"CCC(CCOc1ccc(-c2nc3c(OC4(C)CC4)ncnc3n2Cc2cccc(Cl)c2)c(Cl)c1)C(=O)O (racemic) [Example T441, 4-(3-chloro-4-(9-(3-chlorobenzyl)-6-(1-methylcyclopropoxy)-9H-purin-8-yl)phenoxy)-2-ethylbutanoic acid]",158
3,"COc1cccc(Cn2c(-c3ccc(OCCC(C)C(=O)O)cc3Cl)nc3c(OC4(C)CC4)ncnc32)c1 (racemic) [Example T454, 4-(3-chloro-4-(9-(3-methoxybenzyl)-6-(1-methylcyclopropoxy)-9H-purin-8-yl)phenoxy)-2-methylbutanoic acid]",794
